Data on three compounds can be found in patent US20260355318A1, “MOLECULAR MACHINES FOR TREATMENT OF CANCER, FUNGAL INFECTIONS, OR BACTERIAL INFECTIONS” (priority 2022, published 2026).

As usually defined, the MIC is the smallest concentration in the dilution series that meets the test's criterion for growth inhibition.

SMILES strings stand for the structures.

The test system of series [1] is A. fumigatus. Nature of the series: Time-kill assay, A. fumigatus. Format: cell-based, Aspergillus fumigatus. The note with it: 2×MIC, 405-nm light at 292 mW cm^−2. Here is the method: (§1) For yeasts, five independent colonies were collected from 24-h SDAE plates, inoculated into yeast peptone with 2% dextrose (YPD), and grown for 24 h at 30 °C. Cells were then sub-cultured in fresh medium and grown for ~9 h. Afterward, the cells were centrifuged (5,000 ×g, 5 min), washed, and resuspended in phosphate-buffered saline (PBS) to ~10^6 CFU mL^−1. For A. fumigatus, conidia suspensions (~10^4 CFU mL^−1) were prepared in PBS as previously described.
(§2) Amphotericin B (AMB, 4×MIC) controls were prepared likewise, but light was omitted. Aliquots were collected in 1-min increments for up to 10 min, serially diluted in PBS, and plated on SDAE medium. Plates were incubated at 30 ° C for 48 h with confirmation after 72 h (yeasts) or at 28 ° C for 7 days with confirmation after 14 days (A. fumigatus), after which the CFU number was determined. The results were expressed as the logarithm of base 10 of the ratio between the CFU at each time point and the CFU at time 0. The detection limit of the method was ~1 log10 CFU mL^−1.

Series [2] concerns C. albicans. The experiment in a line: Lipid peroxidation (TBARS, MDA). In kind it is cell-based, Candida albicans. The note with it: 2×MIC. The protocol:
(§3) Superoxide dismutase (SOD) activity was determined using a Superoxide Dismutase Assay Kit (Caymanchem, MI, USA) per the distributor's instructions. Lipid peroxidation was determined using a TBARS assay kit (TCA method) (Caymanchem, MI, USA) per the distributor's instructions. SOD activity and MDA levels were normalized by protein content determined by the Pierce assay (Pierce™ BCA Protein Assay Kit, Thermo Fisher Scientific, MA, USA).

For series [3], the system named is C. albicans. The experiment in a line: Time-kill assay, C. albicans. In kind it is cell-based, Candida albicans. The protocol: as §1, §2
The next series deals with superoxide dismutase. Nature of the series: Superoxide dismutase (SOD) activity. Conditions: 0.5×MIC, p<0.05. In kind it is cell-based, Candida albicans. The protocol:
as §3

Series [4] relates to C. albicans. The experiment in a line: Development of resistance / cross-resistance in C. albicans (serial passage, single-step). Format: cell-based. The note with it: Candida albicans, read-out: MIC of MM in antifungal-resistant C. albicans. The protocol: FIG. 3: Evaluation of the development of resistance to MMs in C. albicans. For the stepwise resistance assessment by serial passage (left), C. albicans cell suspensions were treated with increasing concentrations (0.3125-160 μM) of different MMs (8 mM stock in DMSO) and then irradiated with […] light (87.6 J cm^−2). The irradiated cell suspensions were then inoculated in MOPS-buffered RPMI 1640 (pH 7.0, Sigma, MO, USA), and the tubes were incubated at 30 ° C for 48 h. […] Cells able to grow at 0.5×MIC of each MM were collected by centrifugation (5,000×g, 5 min), resuspended and re-challenged with a range of MM concentrations and irradiated with 405 nm light (87.6 J cm^−2). The procedure was repeated for a total of 20 consecutive cycles. […] Irradiated cells were then inoculated in YPD and incubated at 30 °C. However, MM-resistant colonies could not be recovered even after 14 days of incubation. Created with Biorender.com.
A modified version of the broth microdilution serial passage method was used to assess the development of resistance to visible-light-activated MMs in C. albicans (Kapoor et al., 2019). C. albicans cell suspensions were prepared and irradiated as previously described for the determination of MM MIC. Cells were then inoculated into buffered RPMI 1640 and incubated at 30 ° C for 48 h. Cells able to grow at 0.5×MIC of MM were centrifuged (5,000×g, 5 min), resuspended, rechallenged with different MM concentrations, and irradiated with 405-nm light (87.6 J cm^−2). The procedure was repeated for 20 consecutive cycles. The antifungals AMB, CAS, and FLC were processed similarly, except that light was omitted, and used as controls.

For series [5], the system named is S. cerevisiae. The experiment in a line: Time-kill assay, S. cerevisiae. In kind it is cell-based, Saccharomyces cerevisiae. Conditions: 2×MIC, 405-nm light at 292 mW cm^−2. The protocol:
as §1, §2

Series [6] has as its system C. albicans. Nature of the series: MIC, visible-light-activated MMs and conventional antifungals, C. albicans. Format: cell-based, Candida albicans (ATCC 18804). Summed up:
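C. albicans suspensions (~10^4 CFU/mL in saline, CLSI) incubated 30 min in the dark with MMs, then irradiated with stirring at 405 nm, 292 mW cm^−2 for 5 min (87.6 J cm^−2). Cells then grown in MOPS-buffered RPMI 1640 (pH 7.0) at 30 °C for 48 h; MIC is lowest concentration with no visible growth; conventional antifungals tested likewise.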

The nature of series [7]: Estimated rotation rate after light activation. The note with it: based on known motors with similar core skeletons.
The test system of series [8] is C. albicans. The experiment in a line: Influence of BAPTA-AM on MM-induced killing and intracellular calcium. In kind it is cell-based, Candida albicans. The note with it: MM 1 2×MIC. Here is the method: C. albicans cells were grown as described above and resuspended in HHBS (~10^6 CFU mL^−1). The cation chelator 1,2-bis(2-aminophenoxy) ethane-N,N,N′,N′-tetraacetic acid acetoxymethyl ester (BAPTA-AM) was then added (0.25-1 mM, final concentration) (Li et al., 2020). Unamended cells were used as controls. After a 30-min dark incubation at 30 ° C, the cells were centrifuged (5,000×g, 5 min), washed, and resuspended in HHBS. […] After 30 min, the cells were irradiated and processed as described for the time-kill experiments.
(Calcium flux is commonly read through the fluorescence of an indicator in the cells.)

Series [9] deals with A. fumigatus. The experiment in a line: MIC, MMs and antifungals, A. fumigatus. The note with it: A. fumigatus, broth microdilution. In kind it is cell-based, Aspergillus fumigatus (ATCC 1022). The protocol: (§4) Cell suspensions for susceptibility testing (MMs and conventional antifungals) were prepared per the Clinical & Laboratory Standards Institute (CLSI) guidelines (CLSI, 2017; CLSI, 2008). Before testing, yeasts (C. albicans and S. cerevisiae) were sub-cultured in Sabouraud Dextrose Agar-Emmons Modification (SDAE) plates and grown for 24 h at 30 °C. Five independent colonies from 24-h-old plates were collected and diluted to ~10^4 colony forming units (CFU) per mL in sterile saline (CLSI, 2017). Molds (A. fumigatus and the dermatophytes T. rubrum and M. gypseum) were sub-cultured on SDAE medium and incubated for 7 days at 28 °C. Conidia were recovered by covering the plates with sterile distilled water and scraping the colonies. The suspensions were filtered (8-μm pore size) and diluted in saline to ~10^4 CFU mL^−1 (Santos and Hamdan, 2005).
After a 30-min incubation in the dark, cell suspensions were transferred to small, sterilized glass beakers, which were then placed in a water bath. Each sample was irradiated with 405-nm light at 292 mW cm^−2 for 5 min, corresponding to a light dose of 87.6 J cm^−2, determined using an S415C thermal power sensor (Thorlabs, Newton, MA, USA). During irradiation, the cell suspensions were agitated with a small metal stirrer. […]

Series [10] concerns S. cerevisiae. The experiment in a line: MIC, MMs and antifungals, S. cerevisiae. In kind it is cell-based, Saccharomyces cerevisiae (ATCC 13007). The note with it: broth microdilution. Here is the method:
as §4
After a 30-min incubation in the dark, cell suspensions were transferred to small, sterilized glass beakers, which were then placed in a water bath. Each sample was irradiated with 405-nm light at 292 mW cm^−2 for 5 min, corresponding to a light dose of 87.6 J cm^−2, determined using an S415C thermal power sensor (Thorlabs, Newton, MA, USA). During irradiation, the cell suspensions were agitated with a small metal stirrer. A thermocouple probe (model SC-TT-K-30-36-PP; Omega Engineering, Inc., Stanford, CT, USA) was used to monitor the temperature during irradiation. Irradiated cell suspensions were inoculated in 3-(N-morpholino) propanesulfonic acid (MOPS)-buffered Roswell Park Memorial Institute Medium (RPMI) 1640 (pH 7.0). Tubes were incubated at 30 ° C for 48 h (yeasts) and 28 ° C for 7 days (molds). The antifungal or MM concentration resulting in no visible growth was defined as the minimum inhibitory concentration (MIC) (CLSI, 2017; CLSI, 2008). Similarly prepared cell suspensions were used to determine the MIC of conventional antifungals.
In general terms: Dilution methods test growth across graded concentrations, often in twofold steps.

Series [11] concerns C. albicans plasma membrane. Nature of the series: Plasma membrane fluidity, DPH fluorescence. Format: cell-based, Candida albicans. Here is the method:
The effects of MMs on C. albicans membrane dynamics were evaluated using DPH fluorescence (Kim et al., 2009). […] AMB-treated cells were used as controls. Samples were fixed with 0.37% formaldehyde and labeled with 0.6 mM DPH, as previously described (Kim et al., 2009). […] DPH fluorescence of untreated samples minus background was defined as 100% and used to calculate changes in treated samples.

The subject of series [12] is mature C. albicans biofilms. Nature of the series: Biofilm viability (XTT assay). Format: cell-based, Candida albicans. The note with it: 2×, 4×MIC, vs DMSO, MMs with 87.6 J cm^−2 405-nm light. The protocol:
The antibiofilm activity of MMs was investigated using 96-well microtiter plates with flat-bottom wells as a closed static biofilm reactor. This setup is reliable, inexpensive, easy to use and obtain, and requires no additional equipment (Pierce et al., 2010). Two parameters were used to evaluate antibiofilm activity: biofilm biomass and biofilm viability. Biofilm biomass was determined using the crystal violet method (Martins et al, 2010), a simple, inexpensive, and readily accessible method for determining biofilm biomass. However, because crystal violet binds both live and dead cells as well as extracellular polymeric substances, it cannot be used alone to reliably assess antibiofilm activity. To overcome this limitation, the XTT assay was used to evaluate biofilm viability (Nett et al., 2011). […] The resulting formazan can be easily detected by measuring the absorbance at 490 nm, which is proportional to the number of living cells, providing a reliable quantitative measurement of metabolically active cells in biofilms (Taff et al., 2012). […]
Biofilm viability was determined using an XTT cell viability assay kit (Biotium, Hayward, CA, USA) per the manufacturer's instructions. […] Normalized absorbance values were obtained by subtracting the background from the signal.
For orientation: Tetrazolium assays rely on reduction of a dye to a coloured formazan, in cell work by metabolically active cells.

For series [13], the system named is mature C. albicans biofilms. Nature of the series: Biofilm biomass (crystal violet). Conditions: 2×, 4×MIC, vs DMSO, MMs with 87.6 J cm^−2 405-nm light. In kind it is cell-based, Candida albicans. The protocol: The antibiofilm activity of MMs was investigated using 96-well microtiter plates with flat-bottom wells as a closed static biofilm reactor. This setup is reliable, inexpensive, easy to use and obtain, and requires no additional equipment (Pierce et al., 2010). Two parameters were used to evaluate antibiofilm activity: biofilm biomass and biofilm viability. Biofilm biomass was determined using the crystal violet method (Martins et al, 2010), a simple, inexpensive, and readily accessible method for determining biofilm biomass. However, because crystal violet binds both live and dead cells as well as extracellular polymeric substances, it cannot be used alone to reliably assess antibiofilm activity. To overcome this limitation, the XTT assay was used to evaluate biofilm viability (Nett et al., 2011). This assay is based on the reduction of the tetrazolium salt XTT to formazan by dehydrogenases in the mitochondrial electron transport chain of living cells. The resulting formazan can be easily detected by measuring the absorbance at 490 nm, which is proportional to the number of living cells, providing a reliable quantitative measurement of metabolically active cells in biofilms (Taff et al., 2012). […]
Biofilm biomass was determined by the crystal violet method, as previously described (Martins et al., 2010). […]

With `C[C@@H]1Cc2ccc3ccccc3c2/C1=C1\c2ccccc2Sc2cc(NCCN3CCNCC3)ccc21` (mixture of isomers) [MM 7, 9-(2-methyl-2,3-dihydro-1H-cyclopenta[a]naphthalen-1-ylidene)-N-(2-(piperazin-1-yl)ethyl)-9H-thioxanthen-3-amine], the “time to reduce cell numbers to limit of detection” value is recorded as 9 min with A. fumigatus [1] and 9 min with C. albicans [3] (C. albicans, 2×MIC, 405-nm light at 292 mW cm^−2). In the series on C. albicans [2], the “lipid peroxidation product levels” value was “increased levels of the lipid peroxidation product malonaldehyde”. For the same compound, in the series with superoxide dismutase, the superoxide dismutase activity result is given as “increased superoxide dismutase activity”. For the same compound, the MIC in the series on C. albicans [4] was 5 µM; with C. albicans [6] (Candida albicans, read-out: MIC of MM), no more than 5 µM. For the same compound, in the series with S. cerevisiae [5], the “time to population eradication” value came to 5 min. Moreover, the “estimated rotation rate after light activation” value in [7] is 3 MHz.
Take `CC(=O)OCOC(=O)CN(CC(=O)OCOC(C)=O)c1ccccc1OCCOc1ccccc1N(CC(=O)OCOC(C)=O)CC(=O)OCOC(C)=O` [BAPTA-AM, 1,2-bis(2-aminophenoxy) ethane-N,N,N′,N′-tetraacetic acid acetoxymethyl ester]: in the series with C. albicans [8], the “effect of calcium chelator on MM-induced cell death” value was “Mitigation of MM-induced cell death”.
Take `C[C@@H]1[C@H](O)[C@@H](C)/C=C/C=C/C=C/C=C/C=C/C=C/C=C/[C@H](O[C@@H]2O[C@H](C)[C@@H](O)[C@H](N)[C@@H]2O)C[C@@H]2O[C@](O)(C[C@@H](O)C[C@@H](O)[C@H](O)CC[C@@H](O)C[C@@H](O)CC(=O)O[C@H]1C)C[C@H](O)[C@H]2C(=O)O` [Amphotericin B (AMB), Amphotericin B]: the “MIC of antifungal agent” value in the series with A. fumigatus [9] turned out to be 2 µg/mL; in the series with S. cerevisiae [10] it was 0.5 µg/mL; with C. albicans [6] (C. albicans, broth microdilution), 1 µg/mL. Also, the “effect on fungal cell number” value in the series with C. albicans [3] (time-kill, FIG. 1D / FIG. 2, AMB at 4×MIC) is recorded as “non-significant reduction in cell numbers”. For the same compound, the DPH fluorescence result in series [11] was “reduces DPH fluorescence”. The “reduction of biofilm viability” value in series [12] is on record as 20%. For the same compound, in series [13], the “reduction of biofilm biomass” value came to 6%.
